For test [1], the target named is T1, Human immunodeficiency virus type 1 integrase (Human immunodeficiency virus 1, UniProt Q7ZJM1).
The target of test [2] is T1, Human immunodeficiency virus type 1 integrase. This is another data set of the same source.

Data on 12 compounds can be found in ChEMBL document CHEMBL1128265, “Three-dimensional quantitative structure-activity relationship (QSAR) of HIV integrase inhibitors: a comparative molecular field analysis (CoMFA) study” (J Med Chem, 1995).

T1 sequence (Q7ZJM1 whole entry): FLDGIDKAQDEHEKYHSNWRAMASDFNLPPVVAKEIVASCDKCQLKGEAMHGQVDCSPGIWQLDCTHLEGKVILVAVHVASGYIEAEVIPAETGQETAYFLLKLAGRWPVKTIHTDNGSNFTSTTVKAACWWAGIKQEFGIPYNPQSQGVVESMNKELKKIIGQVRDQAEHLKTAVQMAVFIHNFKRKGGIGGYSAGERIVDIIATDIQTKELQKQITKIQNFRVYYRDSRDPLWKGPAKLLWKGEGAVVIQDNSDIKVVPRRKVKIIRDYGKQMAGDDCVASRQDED

As to `O=c1c(O)c(-c2ccc(O)cc2O)oc2cc(O)cc(O)c12` [MORIN], the IC50 in test [1] came to 76.5 µM; in test [2], 31.7 µM.
Turning to `CC1OC(O)C(O)C(O)C1Oc1c(-c2ccc(O)c(O)c2)oc2cc(O)cc(O)c2c1=O` (centres undefined), the concentration for half-maximal inhibition (IC50) in test [1] amounted to 60 µM; in test [2], 38.5 µM.
In the case of `C[C@@H]1O[C@@H](O)[C@H](O)[C@H](O)[C@H]1Oc1c(-c2cc(O)c(O)c(O)c2)oc2cc(O)cc(O)c2c1=O`, the half-maximal inhibitory concentration (IC50) in test [1] is 39.6 µM; in test [2] it was 10.3 µM.
`O=c1c(O)c(-c2ccc(O)c(O)c2)oc2cc(O)c(O)c(O)c12` [QUERCETAGETIN]: the 50% inhibitory concentration (IC50) came to 0.8 µM in test [1] and 0.1 µM in test [2].
`COc1c(O)cc2oc(-c3ccc(O)c(O)c3)cc(=O)c2c1O` [EUPAFOLIN]: the half-maximal inhibitory concentration (IC50) in test [1] came out at 94.3 µM; in test [2] it was 39.1 µM.
In the case of `O=c1c(O)c(-c2ccc(O)c(O)c2)oc2c(O[C@@H]3O[C@@H](O)[C@@H](O)[C@H](O)[C@H]3O)c(O)cc(O)c12`, the concentration for half-maximal inhibition (IC50) was determined as 69.7 µM in test [1] and 22.5 µM in test [2].
For `O=c1cc(-c2ccc(O)c(O)c2)oc2cc(O)cc(O)c12` [LUTEOLIN], the IC50 in test [1] was found to be 32.9 µM; in test [2] it was 25 µM.
The corresponding values for `O=c1c(O)c(-c2cc(O)c(O)c(O)c2)oc2cc(O)ccc12` [ROBINETIN] are 5.9 µM and 1.6 µM.
For `COc1cc(O)c2c(=O)c(O)c(-c3ccc(O)c(O)c3)oc2c1` [RHAMNETIN], the IC50 in test [1] was determined as 61.6 µM; in test [2] it was 28.7 µM.
Consider `O=c1c(OC2COC(O)C(O)C2O)c(-c2ccc(O)c(O)c2)oc2cc(O)cc(O)c12` (centres undefined), for which the IC50 in test [1] was 66.3 µM; in test [2], 25.1 µM.
In the case of `O=c1c(O)c(-c2ccc(O)c(O)c2)oc2cc(O)ccc12` [FISETIN], the results for the IC50 in test [1] and in test [2] were 28.4 µM and 8.5 µM, respectively.
Regarding `O=c1c(O)c(-c2ccc(O)cc2)oc2cc(O)cc(O)c12` [KAEMPFEROL], the figures for the concentration for half-maximal inhibition (IC50) in test [1] and in test [2] were 97.8 µM and 64.7 µM, respectively.

Usually IC50 stands for the concentration needed to halve the response being measured. Low readings indicate inhibition by little substance, high ones a need for much substance.
